Laboratory results from publication PMC5248655 (ACS chemical neuroscience, 2015).
Where a name gives a salt, the structure may show the parent alone. Read-outs that look alike come from different tables or passages of the source.

Assays:
[1] = system: sandwich-cultured primary rat hepatocytes (SCHs); settings: induction of LRP1 and P-gp; cited from earlier work
P-gp [2] = assay: Western blot of P-gp expression in RBE4 cells; assay type: cell-based, rat; settings: 5 µM, 48 h, normalized, vs control, n = 4
LRP1 [3] = assay: Western blot of hepatic LRP1 expression in treated rats; assay type: in vivo, rat; settings: 26 day treatment, n = 5
P-gp [4] = assay: Western blot of P-gp expression in SCHs; assay type: cell-based, rat; settings: 48 h treatment, vs control cells, n = 4
Sprague–Dawley male rats [5] = settings: n = 5; for hepatic uptake (extravascular extraction, E) of ^125I-Aβ40: absolute value
P-gp [6] = settings: 26 day treatment, Western blot, n = 5
LRP1 [7] = assay: Western blot of LRP1 expression in SCHs; assay type: cell-based, rat; settings: 48 h treatment; for increase in LRP1 expression: n = 4
LRP1 [8] = settings: 26 day treatment, Western blot, n = 5
Sprague–Dawley male rats [9] = assay: TCA precipitation assay of Aβ degradation in treated rats; assay type: in vivo, rat; settings: rats treated 26 days, data not shown
Aβ42 = settings: rat, in vivo
LRP1 [10] = assay: Western blot of LRP1 expression in RBE4 cells; assay type: cell-based, rat; settings: 5 µM, 48 h, normalized, vs control, n = 4
Aβ40 = settings: rat, in vivo
P-gp [11] = assay: Western blot of hepatic P-gp expression in treated rats; assay type: in vivo, rat; settings: 26 day treatment, n = 5
C57BL/6 wild-type mice = settings: compared to control mice; cited from earlier work
Sprague–Dawley male rats [12] = assay: Brain efflux index; settings: 60 min after intracerebral microinjection

## CO[C@H]1/C=C/O[C@@]2(C)Oc3c(C)c(O)c4c(O)c(c(/C=N/N5CCN(C)CC5)c(O)c4c3C2=O)NC(=O)/C(C)=C\C=C\[C@H](C)[C@H](O)[C@@H](C)[C@@H](O)[C@@H](C)[C@H](OC(C)=O)[C@@H]1C [rifampicin]
[1]
  effect on biliary clearance of ^125I-Aβ (in words): significantly increased

## CCN(C)C(=O)Oc1cccc([C@H](C)N(C)C)c1 [rivastigmine, rivastigmine L-tartrate]
P-gp [2]
  increase in P-gp expression: approximately 1.7 fold
LRP1 [3]; aged rats
  increase in liver LRP1 expression: 88%
LRP1 [3]; young rats
  increase in liver LRP1 expression: 41%
P-gp [4]
  increase in P-gp expression: 1.3 fold
Sprague–Dawley male rats [5]; aged rats, 26 day treatment, mean ± SEM
  hepatic uptake (extravascular extraction, E) of ^125I-Aβ40: 64.0 ± 4.9%
Sprague–Dawley male rats [5]; aged rats, 26 day treatment, vs vehicle-treated rats of the same age
  increase in hepatic uptake of ^125I-Aβ40: 119%
Sprague–Dawley male rats [5]; young rats, 26 day treatment, mean ± SEM
  hepatic uptake (extravascular extraction, E) of ^125I-Aβ40: 64 ± 3.7%
P-gp [6]; aged rats
  increase in brain P-gp protein expression: 20%
P-gp [6]; young rats
  increase in brain P-gp protein expression: 36%
LRP1 [7]; vs control cells
  increase in LRP1 expression: 1.7 fold
LRP1 [8]; aged rats
  increase in brain LRP1 protein expression: 56%
LRP1 [8]; young rats
  increase in brain LRP1 protein expression: 42%
Sprague–Dawley male rats [9]
  effect on Aβ degradation: no effect
Aβ42
  reduction of total brain Aβ42 level: approximately 52%
  reduction trend in brain Aβ42 levels (in words): not statistically significant
  total Aβ42 level in brain: 466 ± 67 pmol/g brain tissue
LRP1 [10]
  increase in LRP1 expression: approximately 1.7 fold
Aβ40
  reduction of total brain Aβ40 level: approximately 52%
  total Aβ40 level in brain: 1713 ± 260 pmol/g brain tissue
P-gp [11]; aged rats
  increase in liver P-gp expression: 81%
P-gp [11]; young rats
  increase in liver P-gp expression: 47%

## Nc1c2c(nc3ccccc13)CCCC2 [tacrine, Tacrine hydrochloride]
LRP1 [7]; vs control cells
  down-regulation of LRP1 expression: 20%

## COc1ccc2c3c1O[C@H]1C[C@@H](O)C=C[C@@]31CCN(C)C2 [galantamine, Galantamine hydrochloride]
P-gp [4]
  increase in P-gp expression: 1.3 fold
LRP1 [7]; vs control cells
  increase in LRP1 expression: 1.2 fold

## C/C=C(/C=O)[C@@H](CC=O)CC(=O)OCCc1ccc(O)cc1 [oleocanthal]
C57BL/6 wild-type mice
  increase in brain efflux of exogenously introduced Aβ40: 29%

## ^125I-Aβ40
Sprague–Dawley male rats [5]; aged (24 months) vs young (4 months) rats
  reduction of extravascular extraction (E) in aged compared to young rats: 44%
Sprague–Dawley male rats [5]; vehicle-treated young rats, single pass into the portal vein, 18 s, mean ± SEM
  extravascular extraction or hepatic uptake of ^125I-Aβ40: 51.9 ± 2.4%
Sprague–Dawley male rats [12]; vehicle-treated aged rats (24 months)
  ^125I-Aβ40 BEI%: 47%
Sprague–Dawley male rats [12]; vehicle-treated young rats (4 months)
  ^125I-Aβ40 BEI%: 59%

## CC12CC3CC(C)(C1)CC(N)(C3)C2 [memantine]
LRP1 [7]
  effect on LRP1 expression (in words): no effect
